“Also recorded” adds a separate entry of the source.
Columns and labels:
[1] = system: MDA-MB-231 cells; assay: WST-1 cell proliferation assay, MDA-MB-231; format: cell-based, human; details: for inhibition of proliferation: MDA-MB-231, WST-1, 72 hours
Description: MDA-MB-231 cells were seeded at 4×10^3 cells/well into a 96-well flat bottom tissue culture plate in a final volume of 100 ul and left to adhere for 24 hours at 37° C. and 5% CO2. Cells were then treated with inhibitors for 72 hours at a final concentration of 200, 100, 50, 25, 12.5 or 6.25 μM. Following inhibition, media was removed and replaced with 100 μL/well of WST-1 cell proliferation reagent (Sigma-Aldrich, Cat# 11644807001) at 1:10 final dilution. Absorbance was recorded at 450 nm at 1, 2, 3, and 4 hour incubation periods using a microplate spectrophotometer (with 30 sec mix time). Data represent a single independent experiment performed in triplicate, results are graphed as mean +/− standard error (SE).
(§1) (A) CT26, 4T1 or MDA-MB-231 Cells were treated with inhibitors for 72 hours. Following inhibition, media was removed and replaced with WST-1 cell proliferation reagent. Absorbance was recorded at 450 nm after 1 hour. Data represent a single independent experiment performed in triplicate. Results are graphed as mean +/− standard error (SE). B) MDA-MB-231 or CT26 cancer cells were treated with vehicle control, DL-2-Batch 1 (original stock), DL-2-Batch 2 (current stock), DL-2-TBAB or linear PDL1. Cells were permeabilised and were probed with the DUOLINK ligation assay. Cover slips were mounted on glass microscope slides with ProLong nucblue glass Antifade reagent (Life Technologies). PDL1Ac and IMPα1 DUOLINK Digital images were analysed using ImageJ software (ImageJ, NIH, Bethesda, MD, USA) and graphs represent the mean DOT Fluorescent Intensity in the nucleus or the cytoplasm compartments with significant differences calculated as per one-way ANOVA comparison. (C) MDA-MB-231 or CT26 cancer cells were treated with vehicle control, DL-2-Batch 1 (Original stock), DL-2-Batch 2 (current stock), DL-2-TBAB or linear PDL1. Cells were permeabilised and were probed with the DUOLINK ligation assay. Cover slips were mounted on glass microscope slides with ProLong nucblue glass Antifade reagent (Life Technologies). PDL1-unmodified and IMPα1 DUOLINK digital images were analysed using ImageJ software (ImageJ, NIH, Bethesda, MD, USA) and graphs represent the mean DOT fluorescent intensity in the nucleus or the cytoplasm compartments with significant differences calculated as per one-way ANOVA comparison.
(§2) 4T1, CT26 or MDA-MB-231 cancer cell lines were treated with DL-2 or DL-2-D bicyclic inhibitors for 72 hours. Following inhibition, media was removed and replaced with WST-1 cell proliferation reagent. Absorbance was recorded at 450 nm after 1 hour. Data represent a single independent experiment performed in triplicate; results are graphed as mean +/− standard error (SE).
Cells weretreated with inhibitors for 48 hours. Following inhibition, media was removed and replaced with WST-1 cell proliferation reagent. Absorbance was recorded at 450 nm after 1 hour.

[2] = system: CT26 cells; assay: WST-1 cell proliferation assay, CT26; format: cell-based, mouse; details: CT26, WST-1, 72 hours
Description: as §1, §2

[3] = system: 4T1 cells; assay: WST-1 cell proliferation assay, 4T1; format: cell-based; details: 4T1, WST-1, 72 hours
Description: as §1, §2

[4] = system: CSV, ABCB5, EGFR, FOXQ1, E-Cadherin in MDA-MB-231-Br cells; assay: High resolution digital pathology of mesenchymal/epithelial markers, MDA-MB-231-Br; format: cell-based, human
Description: To examine the signature of CD8, CSV, EGFR, ABCB5, FOXQ1, commercial PD-L1-28-8, nuclear PD-L1, cytoplasmic PDL1 in MDA-MB-231 TNBC cells/TNBC brain cancer clone cells (untreated or treated with bicyclic inhibitors targeting nuclear PD-L1-PTM1). MDA-MB-231/MDA-MB-231-Br cells were permeabilised by incubating with 0.5% Triton X-100 for 15 min, blocked with 1% BSA in PBS and were probed with either CSV (Mouse host), CD8 (mouse host), EGFR (Rabbit host), ABCB5 (Goat Host), ALDH1A (Rabbit Host), NODAL (Goat Host), nuclear PDL1 (rabbit host), cytoplasmic PD-L1 (rabbit host) visualized with a donkey anti-rabbit AF 488, anti-mouse AF 568, donkey anti-goat 647. […] Digital images were analyzed using automated ASI software (Applied Spectral Imaging, Carlsbad, CA) to determine the distribution and intensities automatically with automatic thresholding and background correction of the average nuclear fluorescence intensity (NFI), allowing for the specific targeting of expression of proteins of interest. Digital images were also analysed using ImageJ software (ImageJ, NIH, Bethesda, MD, USA) to determine the total cell fluorescence or cell surface only fluorescence for non-permeabilised cells. Digital images were analysed using ImageJ software (ImageJ, NIH, Bethesda, MD, USA) to determine either the Total Nuclear Fluorescent Intensity (TNFI), the Total Cytoplasmic Fluorescent Intensity (TCFI). […]

For `CCCCCCCCCCCCCC(=O)NC(C)C(=O)NC1CSCc2cc3cc(c2)CSC[C@H](NC(=O)[C@H](Cc2ccccc2)NC(=O)[C@H](C(C)CC)NC(=O)[C@H](Cc2ccccc2)NC(=O)[C@H]([C@@H](C)O)NC(=O)C(CC(C)C)NC1=O)C(=O)N[C@@H](CCCNC(C)=N)C(=O)N[C@@H](CC(C)C)C(=O)N[C@@H](CCCNC(=N)N)C(=O)N[C@@H](CCCCN)C(=O)NCC(=O)N[C@@H](CCCNC(=N)N)C(=O)NC(C(=O)N[C@@H](CCSC)C(=O)NC(CCSC)C(=O)N[C@@H](CC(=O)O)C(=O)NC(C(=O)N[C@@H](CCCCN)C(=O)NC(CCCCN)C(=O)O)C(C)C)CSC3` (mixture of isomers) [DL-2], the inhibition of proliferation [1] was “able to inhibit proliferation; also recorded: significantly inhibit the proliferation”, the inhibition of proliferation ([1]; listed as DL-2-TBMB) was “able to effectively inhibit the proliferation” and the “potency of proliferation inhibition relative to DL-1” value ([1]; MDA-MB-231, higher potency than DL-1) was 2-3 fold. For the same compound, the inhibition of proliferation [2] was “significantly inhibit the proliferation”, the inhibition of proliferation ([2]; listed as DL-2-TBMB) was “able to effectively inhibit the proliferation” and the inhibition of proliferation [3] was “significantly inhibit the proliferation”. For the same compound, the inhibition of proliferation ([3]; listed as DL-2-TBMB) was “able to effectively inhibit the proliferation”, the “expression of the epithelial marker E-Cadherin” value [4] was “able to induce expression” and the “mesenchymal stem-like resistant protein markers (CSV, ABCB5, EGFR, FOXQ1)” value ([4]; vs vehicle control) was “significantly inhibit”.

From patent US20240117005A1, “NOVEL BICYCLIC PEPTIDES” (THE COUNCIL OF THE QUEENSLAND INSTITUTE OF MEDICAL RESEARCH, priority 2021, published 2024)
